A short description of data set [1]: Bazedoxifene acetate recovery in different extraction media, XRD peak area after tablet extraction. As to conditions: 1.0 mL/tablet, XRD peak at 12.8° (Form A). Type of data set: physicochemical. How it is done: The coatings of three of the tablets were removed. The resulting tablets were then placed in a small beaker. About 3.0 ml of extraction medium solution was added to the beaker to produce a mixture. The mixture was broken up and stirred for about 5 to about 15 minutes. The resulting mixture was filtered and washed with an additional 3.0 ml of extraction medium solution three times to produce a solid (filtrand). The recovered solid was dried at about 40° C. overnight. The dried solid was grinded and pressed into pellets for XRD measurement. This procedure can be scaled up or down for various quantities of BZA tablets. This procedure was employed for the samples found in Table 1.
X-Ray Powder Diffraction analyses were carried out on samples prepared according to Examples 1 and 2 using a Bruker D8 Discover X-ray diffractometer with GADDS. The diffractometer power was set at 40 kV and 40 mA. The collimator diameter of the instrument was about 0.8 mm and the detector-to-sample distance was set at about 30 cm. The X-ray incident angle relative to the pellet/tablet surface was about 40 and the detection angle relative to the pellet/tablet surface was about 16±0.2°. Data were collected at about 120 minutes to about 240 minutes.
The following table illustrates the results of experiments using the extraction methods of Example 1. The extractions were performed using different extraction media and the results were measured in terms of peak area of bazedoxifene using XRD as described in Example 3.

Test in data set [2]: as above
Type of data set: physicochemical. The note with it: XRD peak at 12.8° (Form A).

Consider `Cc1c(-c2ccc(O)cc2)n(Cc2ccc(OCCN3CCCCCC3)cc2)c2ccc(O)cc12` [Bazedoxifene acetate, 1-[4-(2-azepan-1-yl-ethoxy)-benzyl]-2-(4-hydroxy-phenyl)-3-methyl-1H-indol-5-ol acetic acid], for which the “Peak Area of Bazedoxifene” value came out at 22.7 count · degree in data set [1] (Experiment 6, 0.50 M Ammonium Acetate, pH 6.20); 23.1 count · degree in data set [1] (Experiment 7, 0.125 M Ammonium Acetate + 0.375 M Sodium Acetate, pH 6.85); 32.0 count · degree in data set [1] (Experiment 8, 0.05 M Ammonium Acetate + 0.45 M Sodium Acetate, pH 7.18); 36.2 count · degree in data set [1] (Experiment 9, 0.50 M Sodium Acetate, pH 8.34); 21.8 count · degree in data set [1] (Experiment 10, 0.50 M Sodium Chloride, pH 9.20 adjusted by Sodium Hydroxide); 3.3 count · degree in data set [2] (Experiment 1, Millipore Water, pH 5.9, 2.50 mL/tablet). Also, the “Peak Area of Bazedoxifene” value in data set [2] (Experiment 2, Millipore Water, pH 5.9, 1.67 mL/tablet) is listed as 4.9 count · degree; in data set [2] (Experiment 3, Diluted Acetic Acid, pH 1.96, 2.50 mL/tablet), “No Detection”; in data set [2] (Experiment 5, Millipore Water, pH 5.9, 0.83 mL/tablet) it was 11.6 count · degree.
